Data published in patent US9439426B2, “Active compound combinations comprising carboxamide derivatives and a biological control agent” (BAYER CROPSCIENCE AG, priority 2012, dated 2016).

How the values were obtained:
[1] = tested on: Septoria tritici; assay: Septoria tritici-test (wheat)/preventive; type: in vivo; details: preventive, 30 ppm a.i., evaluated 21 days after inoculation
Experimental: (§1) The commercially available compounds SERENADE-MAX®, SONATA®, active compounds (1 part by weight) solved in N,N-dimethylacetamide (49 parts by weight) and alkylaryl polyglycol ether (1 part by weight), or combinations thereof were diluted with water to the desired concentration.
(§2) To test for preventive activity, young plants are sprayed with the preparation of active compound or active compound combination at the stated rate of application.
After the spray coating has been dried, the plants are sprayed with a spore suspension of Septoria tritici. The plants remain for 48 hours in an incubation cabinet at approximately 20° C. and a relative atmospheric humidity of approximately 100% and afterwards for 60 hours at approximately 15° C. in a translucent incubation cabinet at a relative atmospheric humidity of approximately 100%.
The plants are placed in the greenhouse at a temperature of approximately 15° C. and a relative atmospheric humidity of approximately 80%.
The test is evaluated 21 days after the inoculation. 0% means an efficacy which corresponds to that of the untreated control, while an efficacy of 100% means that no disease is observed.

[2] = tested on: Puccinia triticina; assay: Puccinia triticina-test (wheat)/preventive; type: in vivo; details: preventive, 30 ppm a.i., evaluated 8 days after inoculation
Experimental: as §1, §2
After the spray coating has been dried, the plants are sprayed with a spore suspension of Puccinia triticina. The plants remain for 48 hours in an incubation cabinet at approximately 20° C. and a relative atmospheric humidity of approximately 100%.
(§3) The plants are placed in the greenhouse at a temperature of approximately 20° C. and a relative atmospheric humidity of approximately 80%.
(§4) The test is evaluated 8 days after the inoculation. 0% means an efficacy which corresponds to that of the untreated control, while an efficacy of 100% means that no disease is observed.

[3] = tested on: Pyrenophora teres; assay: Pyrenophora teres-test (barley)/preventive; type: in vivo; details: preventive, 30 ppm a.i., evaluated 8 days after inoculation
Experimental: as §1, §2
After the spray coating has been dried, the plants are sprayed with a spore suspension of Pyrenophora teres. The plants remain for 48 hours in an incubation cabinet at approximately 20° C. and a relative atmospheric humidity of approximately 100%.
as §3, §4

[4] = log P by HPLC on reversed-phase column (C 18), EEC Directive 79/831 Annex V.A8; type: physicochemical; details: reversed-phase HPLC column (C 18), 40° C., 0.1% aqueous formic acid and acetonitrile
Experimental: In table 1, the log P values were determined in accordance with EEC Directive 79/831 Annex V.A8 by HPLC (High Performance Liquid Chromatography) on a reversed-phase column (C 18), using the method described below:
Temperature: 40° C.; Mobile phases: 0.1% aqueous formic acid and acetonitrile; linear gradient from 10% acetonitrile to 90% acetonitrile.
Calibration was carried out using unbranched alkan-2-ones (comprising 3 to 16 carbon atoms) with known log P values (determination of the log P values by the retention times using linear interpolation between two successive alkanones). lambda-max-values were determined using UV-spectra from 200 nm to 400 nm and the peak values of the chromatographic signals.

## CC(C)c1ccc(Cl)cc1CN(C(=O)c1c(C(F)F)nn(C)c1F)C1CC1 [A5, N-(5-chloro-2-isopropylbenzyl)-N-cyclopropyl-3-(difluoromethyl)-5-fluoro-1-methyl-1H-pyrazole-4-carboxamide]
[1]
  Efficacy in % found: 60%
[2]
  Efficacy in % found: 67%
[3]
  Efficacy in % found: 78%

## CC(C)c1ccccc1CN(C(=S)c1c(C(F)F)nn(C)c1F)C1CC1 [A20, N-cyclopropyl-3-(difluoromethyl)-5-fluoro-N-(2-isopropylbenzyl)-1-methyl-1H-pyrazole-4-carbothioamide]
[4]
  chromatographic logP: 4.36
